According to patent US20180296530A1, “METHOD FOR TREATING ATOPIC DERMATITIS” (priority 2015, published 2018):
“Also recorded” adds a separate entry of the source.

Experiments:
[1] = Clinical trial: nocturnal urinary 6-sulfatoxymelatonin by ELISA; assay type: in vivo, human; settings: after treatment with melatonin compared with placebo, P<0.001
Experimental: The first urine sample on the morning after each actigraphic examination was obtained. Levels of urinary 6-sulfatoxymelatonin were assayed by enzyme-linked immunosorbent assay with a commercialized kit (IBL International GmbH) and were used to represent the melatonin level throughout the previous night.

[2] = tested on: DNCB-induced AD mouse model; assay: Example 5: dermatitis severity, topical melatonin in DNCB-induced AD mouse model; assay type: in vivo, Balb/c mice
Experimental: Four- to six-week-old Balb/c mice were maintained under specific pathogen-free conditions. Animals were housed in an air-conditioned animal room (25±1° C.; relative humidity 40±5%) and were fed a laboratory diet and distilled water. Animal care and handling protocols were approved by the Animal Committee of the College of Medicine, Taiwan University, and all procedures were conducted in accordance with the U.S. National Institute of Health guidelines.
The protocol for establishing an AD mouse model in this Example was modified from those described previously. Briefly, referring to FIG. 4, DNCB-induced AD mouse model was prepared by the repeated applications of 20 μL of 1% DNCB in acetone/olive oil (4:1) to the outer and inner surfaces of mouse ears and 100 μL of the same solution to the shaved back skin once on days 1, 2, and 3. Mice of Control group were treated with the identical volumes of vehicle. […]
Macroscopic assessment of the severity of dermatitis was determined by a scoring method as described previously. Briefly, the degree of each sign were scored as 0 (none), 1 (mild), 2 (moderate), and 3 (severe). […] Ear thickness was measured with a thickness gauge (Digimatic Indicator, Mitsutoyo, Tokyo). […]

[3] = Clinical trial: adverse events; assay type: in vivo, human; settings: oral melatonin 3 mg/d, 4 weeks, children with AD
Experimental: Visits occurred at the start of the prescreening and on the first and last day of each treatment period, during which AD disease severity was assessed, blood and urine samples were collected, questionnaires evaluating subjective symptoms were filled out, and pill count and adverse events were recorded.

[4] = tested on: Patients aged 1 to 18 years with physician-diagnosed AD; assay: Clinical trial: polysomnography in a subgroup; assay type: in vivo, human; settings: melatonin vs placebo, P>0.05
Experimental: Sleep was evaluated by actigraphy (Mini-Mitter Actiwatch; Philips-Respironics). Each participant wore the actigraphic device on the nondominant wrist for 3 consecutive nights starting 3 nights before each treatment period and for the last 3 nights of each treatment period. In a subgroup of patients who offered consent, polysomnography was performed on the night before the first day and on the last night of each treatment period.

[5] = tested on: Patients aged 1 to 18 years with physician-diagnosed AD; assay: Randomized double-blind placebo-controlled crossover clinical trial: AD severity by SCORAD index; assay type: in vivo, human; set-up: key to mean SCORAD index, first treatment period, before / mean SCORAD index, first treatment period, after: SCORAD index, range 1-103, higher = worse symptoms; key to Objective SCORAD index, Difference: objective SCORAD, range 0-83, higher = worse symptoms
Experimental: A randomized clinical study with a double-blind, placebo-controlled crossover design was performed. The institutional review committee of National Taiwan University Hospital approved the study protocol. This study conformed to the principles of the Declaration of Helsinki. Patients or their guardians provided written informed consent. Patients aged 1 to 18 years with physician-diagnosed AD involving at least 5% of the total body surface area were recruited from the pediatric and dermatology outpatient departments of the National Taiwan University Hospital from Aug. 1, 2012, through Jan. 31, 2013. Follow-up was completed on Apr. 13, 2013. Those patients with sleep problems occurring more than 3 days per week during the previous 3 months were eligible. The study participants were randomly assigned to 2 groups in a 1:1 ratio, with a block size of 4. One group received melatonin first and then placebo, and the other group received placebo first and then melatonin. The melatonin and placebo tablets were identical in appearance. The participants and their caregivers, treating physicians, those assessing outcomes, and those analyzing the data were all masked to group assignment. […] They were then randomized to receive oral melatonin, 3 mg/d (General Nutrition Corporation), or placebo (Standard Chem & Pharm Co, Ltd) at bedtime for 4 weeks. After a 2-week washout period, participants crossed to the alternate treatment. In this clinical trial, the primary study outcome was the Scoring Atopic Dermatitis (SCORAD) index for the evaluation of AD severity. Secondary outcomes included the objective sleep variables measured by actigraphy, the patient's subjective description of the change in sleep and dermatitis severity, the sleep variables measured by polysomnography, nocturnal urinary levels of 6-sulfatoxymelatonin, and serumtotal and allergen-specific IgE levels. Severity of AD was assessed using the SCORAD index (range, 1-103, with greater scores indicating worse symptoms) by the same physician (Y.-S.C.) blinded to the treatment randomization. The SCORAD index includes subjective visual analog scale scores from 0 to 10 (with greater numbers indicating worse symptoms) for degree of pruritus and sleep loss, which are referred to as the pruritus score and the subjective sleep score, respectively, in this study. The objective SCORAD index, which excludes the SCORAD score for subjective symptoms (range, 0-83, with greater scores indicating worse symptoms), was also used for analysis.

[6] = after vs before oral melatonin 3 mg/d, 4 weeks, mean
[7] = melatonin vs placebo, adjusted for age and sex

Compound: COc1ccc2[nH]cc(CCNC(C)=O)c2c1 [Melatonin, melatonin]
- Nocturnal urinary 6-sulfatoxymelatonin levels [1]: significantly increased
- gross findings of dermatitis ([2]; DNCB-stimulated mice treated with melatonin, FIG. 5, less skin erythema, less skin excoriation, improved hair growth): dermatitis was improved
- Dermatitis clinical score ([2]; after topical melatonin treatment, decreased from 12, total score 0 to 12, Day 20, concentration not given): 3
- adverse events [3]: no adverse event was reported; also recorded: no adverse effect of medication was reported
- effect on the stages of sleep and limb movement [4]: did not have a significantly different effect
- SCORAD index vs placebo, Wilcoxon signed rank test ([5]; FIGS. 2A and 2C, sensitivity analysis): apparently decreased the SCORAD index
- patients who subjectively believed that their dermatitis had improved ([5]; after melatonin treatment, 17 of 36 (placebo 12 of 38 [32%])): 47%
- Subjective sleep score, After ([5]; after oral melatonin 3 mg/d at bedtime for 4 weeks, mean): 3.8
- Pruritus score, After ([5]; after oral melatonin 3 mg/d at bedtime for 4 weeks, mean, score 0 to 10): 5.1
- Objective SCORAD index, After ([5]; after oral melatonin 3 mg/d at bedtime for 4 weeks, mean, score 0 to 83): 31.3
- SCORAD index, After ([5]; after oral melatonin 3 mg/d at bedtime for 4 weeks, mean, score 0 to 103): 40.2
- Objective SCORAD index, Difference [5, 6]: −8.2
- Pruritus score, Difference [5, 6]: −0.6
- SCORAD index, Difference [5, 6]: −9.9
- Subjective sleep score, Difference [5, 6]: −1.1
- mean reduction of the SCORAD index ([5]; in 4 weeks, oral melatonin 3 mg/d): 9.9
- decrease of the SCORAD index compared with placebo ([5]; linear mixed-effects model, adjusted for age and sex): 9.1
- decrease of the objective SCORAD index compared with placebo ([5]; linear mixed-effects model, no significant carryover effect (P=0.81), significant period effect (P=0.02)): 8.7
- mean SCORAD index, first treatment period, after ([5]; melatonin group, first treatment period, after oral 3 mg/d for 4 weeks): 42.3
- mean SCORAD index, first treatment period, before ([5]; melatonin group, first treatment period, before treatment): 49.5
- mean SCORAD index, second treatment period, after ([5]; melatonin group, second treatment period, after oral 3 mg/d for 4 weeks): 38.3
- mean SCORAD index, second treatment period, before ([5]; melatonin group, second treatment period, before treatment): 48.7
- Subjective sleep score, Before ([5]; melatonin phase, before treatment, mean): 4.8
- Pruritus score, Before ([5]; melatonin phase, before treatment, mean, score 0 to 10): 5.6
- Objective SCORAD index, Before ([5]; melatonin phase, before treatment, mean, score 0 to 83): 38.6
- SCORAD index, Before ([5]; melatonin phase, before treatment, mean, score 0 to 103): 49.1
- Objective SCORAD index, Difference of Treatment Effect From the Linear Mixed-Effects Model, Mean [5, 7]: −8.7
- Pruritus score, Difference of Treatment Effect From the Linear Mixed-Effects Model, Mean [5, 7]: 0.0
- SCORAD index, Difference of Treatment Effect From the Linear Mixed-Effects Model, Mean [5, 7]: −9.1
- Subjective sleep score, Difference of Treatment Effect From the Linear Mixed-Effects Model, Mean [5, 7]: −0.4
